In patent US20240293430A1, “WITHAFERIN A AND IMMUNE CHECKPOINT BLOCKER COMBINATION THERAPIES” (University of South Florida, priority 2023, published 2024):
Like-named read-outs stand apart in the source and are kept apart here.

Tests used:
[1] = test system: PD-L1 upregulation in MC-38, HCT-116, 4T-1, and MDA-MB-231 cell lines; test: PD-L1 with WFA and NAC in colorectal and breast cancer cell lines; assay type: cell-based, mouse (MC-38, 4T1), human (HCT-116; conditions: 5 mM NAC; MC-38, HCT-116, 4T-1, MDA-MB-231
[2] = test system: WFA-mediated PD-L1 and ecto-CRT increase in NSCLC cell lines; test: ROS scavenger added to WFA, PD-L1 and ecto-CRT, NSCLC; assay type: cell-based, mouse (LLC), human (H1650, A549); conditions: 24 h; for effect on WFA-mediated PD-L1 increase: WFA + 5 mM scavenger, flow cytometry and qRT-PCR (NAC), flow cytometry (GSH)
Description: NSCLC cell lines were treated with WFA (0.6 μM in LLC, H1650 cells, 4 μM in A549 cells), or a combination of WFA+5 mM NAC for 24 h. (FIGS. 4A, 4D, 4G) The change in ROS levels were measured in LLC (FIG. 4A), H1650 (FIG. 4D), and A549 (FIG. G). (FIGS. 4B, 4E, 4H) by flow cytometry. The change in PD-L1 levels was measured in LLC (FIG. 4B), H1650 (FIG. 4E), and A549 (FIG. 4H) cell lines using flow cytometry and qRT-PCR. (FIG. 4C, 4F, 4I) Ecto-CRT levels were measured in LLC (FIG. 4C), H1650 (FIG. 4F), and A549 (FIG. 41) by flow cytometry. Means of two independent experiments ±SEM are shown, except for the PCR experiments that were repeated twice and for which one representative experiment is shown. Statistical significance was calculated using one-way ANOVA and a Fisher LSD post hoc test where * is p<0.05, ** is p<0.01,*** is p<0.001, and **** is p<0.0001.
All cells were treated with 0.6 μM WFA except A549, 4t1 and MDA-MB-231 cells which were treated with 4 μM, 1 μM, 2 μM WFA, respectively. […] PCR experiments were repeated twice, and one representative experiment is shown as mean±SEM of 3 technical replicates. Flow cytometry experiments were performed twice and the mean±SEM of two representative experiments is shown. Treatments were compared to the control using one-way ANOVA and Fisher LSD post hoc test. * p<0.05, ** p<0.01, *** p<0.001, **** p<0.0001.
To test our hypothesis, we treated NSCLC cell lines with WFA, NAC, or a combination of both.

[3] = test system: ROS levels in NSCLC cell lines; test: ROS levels with ROS indicator CM-H2DCFDA; assay type: cell-based, mouse (LLC), human (H1650; conditions: 24 h; WFA 0.6 μM (LLC, H1650), 4 μM (A549); NAC 5 mM
[4] = test system: WFA-induced PD-L1 upregulation in NSCLC cells; test: Pharmacologic inhibitors added to WFA, PD-L1 by flow cytometry; assay type: cell-based, mouse (LLC), human (H1650, A549)

**Q.** Which results are given for `CC(=O)N[C@@H](CS)C(=O)O` [NAC, N-acetyl cysteine, reference compound]?
**A.** effect on WFA-mediated PD-L1 upregulation [1]: completely reversed; effect on WFA-induced ecto-CRT expression ([2]; WFA + 5 mM NAC): completely reversed; effect on WFA-mediated PD-L1 increase [2]: completely reversed; ROS levels [3]: reduced

**Q.** For `N[C@@H](CCC(=O)N[C@@H](CS)C(=O)NCC(=O)O)C(=O)O` [Glutathione, L-Glutathione], which “effect on WFA-mediated PD-L1 increase” value [2] is on record?
**A.** abrogated

**Q.** How did the “effect on WFA-induced PD-L1 upregulation” value [4] turn out when Brusatol was run?
**A.** completely abrogated

**Q.** How did the “effect on WFA-induced PD-L1 upregulation” value ([4]; WFA + inhibitor, 24 h, STATTIC: LLC, H1650, PX-478: LLC, brusatol: LLC, H1650, A549) turn out when `O=[N+]([O-])c1ccc2c(c1)S(=O)(=O)C=C2` [STATTIC] was run?
**A.** neither STATTIC nor PX-478 were able to reverse
